Experimental data taken from the supplement of paper PMC10307832.

Key:
Experiment in all cases: relative viability (nuclei count vs DMSO), 5 days (fraction); higher = more cells survive
EPLC-272H = tested on: EPLC-272H
Method in brief: (§1)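 Relative viability is defined as nuclei in treated wells over nuclei in vehicle wells. Duplicate plates were run and medians reported. Lung cancer cell lines in 1536-well plates were dosed by pin tool one day after seeding, with one drug or with a fixed anchor-drug dose plus five library-drug doses (not always all listed) in √10 steps, and nuclei were counted after 5 days.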

NCI-H2009 = tested on: NCI-H2009
Method in brief: as §1

LOU-NH91 = tested on: LOU-NH91
Method in brief: as §1

NCI-H2023 = tested on: NCI-H2023
Method in brief: as §1

EMC-BAC-2 = tested on: EMC-BAC-2
Method in brief: as §1

HOP-62 = tested on: HOP-62
Method in brief: as §1

NCI-H460 = tested on: NCI-H460
Method in brief: as §1

NCI-H727 = tested on: NCI-H727
Method in brief: as §1

NCI-H2170 = tested on: NCI-H2170
Method in brief: as §1

NCI-H23 = tested on: NCI-H23
Method in brief: as §1

SW 1573 = tested on: SW 1573
Method in brief: as §1

NCI-H441 = tested on: NCI-H441
Method in brief: as §1

ChaGo-K-1 = tested on: ChaGo-K-1
Method in brief: as §1

NCI-H650 = tested on: NCI-H650
Method in brief: as §1

NCI-H2126 = tested on: NCI-H2126
Method in brief: as §1

NCI-H647 = tested on: NCI-H647
Method in brief: as §1

NCI-H2347 = tested on: NCI-H2347
Method in brief: as §1

HCC-44 = tested on: HCC-44
Method in brief: as §1

NCI-H1437 = tested on: NCI-H1437
Method in brief: as §1

NCI-H1793 = tested on: NCI-H1793
Method in brief: as §1

NCI-H520 = tested on: NCI-H520
Method in brief: as §1

LCLC-103H = tested on: LCLC-103H
Method in brief: as §1

NCI-H2405 = tested on: NCI-H2405
Method in brief: as §1

Work on `O=c1[nH]c2ccccc2n1C1CCN(CCCC(c2ccc(F)cc2)c2ccc(F)cc2)CC1` [Pimozide] + N=C(N)NC(=N)NCCc1ccccc1 [Phenformin] (partner 250 µM) yielded a relative viability (EPLC-272H; first compound 0.08 µM) of 0.29, a relative viability (EPLC-272H; first compound 0.253 µM) of 0.306 and a relative viability (EPLC-272H; first compound 0.8 µM) of 0.342. For the same molecule, the relative viability (EPLC-272H; first compound 2.53 µM) was 0.0767, the relative viability (EPLC-272H; first compound 8 µM) was 0.253 and the relative viability (NCI-H2009; first compound 0.08 µM) was 0.476. The relative viability (NCI-H2009; first compound 0.253 µM) was 0.479, the relative viability (NCI-H2009; first compound 0.8 µM) was 0.507 and the relative viability (NCI-H2009; first compound 2.53 µM) was 0.46. It also gave a relative viability (NCI-H2009; first compound 8 µM) of 0.391, a relative viability (LOU-NH91; first compound 0.08 µM) of 0.43 and a relative viability (LOU-NH91; first compound 0.253 µM) of 0.702. For the same molecule, the relative viability (LOU-NH91; first compound 0.8 µM) was 0.677, the relative viability (LOU-NH91; first compound 2.53 µM) was 0.79 and the relative viability (LOU-NH91; first compound 8 µM) was 0.581. For the same molecule, the relative viability (NCI-H2023; first compound 0.08 µM) was 0.41, the relative viability (NCI-H2023; first compound 0.253 µM) was 0.403 and the relative viability (NCI-H2023; first compound 0.8 µM) was 0.397. For the same molecule, the relative viability (NCI-H2023; first compound 2.53 µM) was 0.385, the relative viability (NCI-H2023; first compound 8 µM) was 0.354 and the relative viability (EMC-BAC-2; first compound 0.08 µM) was 0.561. The relative viability (EMC-BAC-2; first compound 0.253 µM) was 0.515, the relative viability (EMC-BAC-2; first compound 0.8 µM) was 0.483 and the relative viability (EMC-BAC-2; first compound 2.53 µM) was 0.486. For the same molecule, the relative viability (EMC-BAC-2; first compound 8 µM) was 0.519, the relative viability (HOP-62; first compound 0.08 µM) was 0.67 and the relative viability (HOP-62; first compound 0.253 µM) was 0.657. The relative viability (HOP-62; first compound 2.53 µM) was 0.644, the relative viability (HOP-62; first compound 8 µM) was 0.655 and the relative viability (NCI-H460; first compound 0.08 µM) was 0.556. It also gave a relative viability (NCI-H460; first compound 0.253 µM) of 0.507, a relative viability (NCI-H460; first compound 0.8 µM) of 0.501 and a relative viability (NCI-H460; first compound 2.53 µM) of 0.516. For the same molecule, the relative viability (NCI-H460; first compound 8 µM) was 0.492, the relative viability (NCI-H727; first compound 0.08 µM) was 0.467 and the relative viability (NCI-H727; first compound 0.253 µM) was 0.641. The relative viability (NCI-H727; first compound 0.8 µM) was 0.448, the relative viability (NCI-H727; first compound 2.53 µM) was 0.684 and the relative viability (NCI-H727; first compound 8 µM) was 0.577. For the same molecule, the relative viability (NCI-H2170; first compound 0.08 µM) was 0.411, the relative viability (NCI-H2170; first compound 0.253 µM) was 0.383 and the relative viability (NCI-H2170; first compound 0.8 µM) was 0.44. For the same molecule, the relative viability (NCI-H2170; first compound 2.53 µM) was 0.399, the relative viability (NCI-H2170; first compound 8 µM) was 0.367 and the relative viability (NCI-H23; first compound 0.08 µM) was 0.782. It also gave a relative viability (NCI-H23; first compound 0.253 µM) of 0.741, a relative viability (NCI-H23; first compound 0.8 µM) of 0.673 and a relative viability (NCI-H23; first compound 2.53 µM) of 0.692. It also gave a relative viability (NCI-H23; first compound 8 µM) of 0.79, a relative viability (SW 1573; first compound 0.08 µM) of 0.348 and a relative viability (SW 1573; first compound 0.253 µM) of 0.309. It also gave a relative viability (SW 1573; first compound 0.8 µM) of 0.341, a relative viability (SW 1573; first compound 2.53 µM) of 0.377 and a relative viability (SW 1573; first compound 8 µM) of 0.388. The relative viability (NCI-H441; first compound 0.08 µM) was 0.96, the relative viability (NCI-H441; first compound 0.253 µM) was 0.758 and the relative viability (NCI-H441; first compound 0.8 µM) was 0.767. It also gave a relative viability (NCI-H441; first compound 2.53 µM) of 0.783, a relative viability (NCI-H441; first compound 8 µM) of 0.825 and a relative viability (ChaGo-K-1; first compound 0.08 µM) of 0.565. For the same molecule, the relative viability (ChaGo-K-1; first compound 0.253 µM) was 0.529, the relative viability (ChaGo-K-1; first compound 0.8 µM) was 0.461 and the relative viability (ChaGo-K-1; first compound 2.53 µM) was 0.458. For the same molecule, the relative viability (ChaGo-K-1; first compound 8 µM) was 0.399, the relative viability (NCI-H650; first compound 0.08 µM) was 0.445 and the relative viability (NCI-H650; first compound 0.253 µM) was 0.452. The relative viability (NCI-H650; first compound 0.8 µM) was 0.417, the relative viability (NCI-H650; first compound 2.53 µM) was 0.467 and the relative viability (NCI-H650; first compound 8 µM) was 0.457. It also gave a relative viability (NCI-H2126; first compound 0.08 µM) of 0.513, a relative viability (NCI-H2126; first compound 0.253 µM) of 0.519 and a relative viability (NCI-H2126; first compound 0.8 µM) of 0.464. It also gave a relative viability (NCI-H2126; first compound 2.53 µM) of 0.525, a relative viability (NCI-H2126; first compound 8 µM) of 0.584 and a relative viability (NCI-H647; first compound 0.08 µM) of 0.59. For the same molecule, the relative viability (NCI-H647; first compound 0.253 µM) was 0.497, the relative viability (NCI-H647; first compound 0.8 µM) was 0.435 and the relative viability (NCI-H647; first compound 2.53 µM) was 0.452. The relative viability (NCI-H647; first compound 8 µM) was 0.527, the relative viability (NCI-H2347; first compound 0.253 µM) was 0.474 and the relative viability (NCI-H2347; first compound 0.8 µM) was 0.374. It also gave a relative viability (NCI-H2347; first compound 2.53 µM) of 0.451, a relative viability (NCI-H2347; first compound 8 µM) of 0.269 and a relative viability (HCC-44; first compound 0.08 µM) of 0.253. The relative viability (HCC-44; first compound 0.253 µM) was 0.206, the relative viability (HCC-44; first compound 0.8 µM) was 0.138 and the relative viability (HCC-44; first compound 2.53 µM) was 0.142. It also gave a relative viability (HCC-44; first compound 8 µM) of 0.278, a relative viability (NCI-H1437; first compound 0.08 µM) of 0.395 and a relative viability (NCI-H1437; first compound 0.253 µM) of 0.318. The relative viability (NCI-H1437; first compound 0.8 µM) was 0.327, the relative viability (NCI-H1437; first compound 2.53 µM) was 0.275 and the relative viability (NCI-H1437; first compound 8 µM) was 0.25. It also gave a relative viability (NCI-H1793; first compound 0.253 µM) of 0.29, a relative viability (NCI-H1793; first compound 0.8 µM) of 0.226 and a relative viability (NCI-H1793; first compound 2.53 µM) of 0.237. It also gave a relative viability (NCI-H1793; first compound 8 µM) of 0.356, a relative viability (NCI-H520; first compound 0.08 µM) of 0.724 and a relative viability (NCI-H520; first compound 0.253 µM) of 0.615. For the same molecule, the relative viability (NCI-H520; first compound 0.8 µM) was 0.613, the relative viability (NCI-H520; first compound 2.53 µM) was 0.623 and the relative viability (NCI-H520; first compound 8 µM) was 0.678. For the same molecule, the relative viability (LCLC-103H; first compound 0.08 µM) was 0.327, the relative viability (LCLC-103H; first compound 0.253 µM) was 0.324 and the relative viability (LCLC-103H; first compound 0.8 µM) was 0.317. For the same molecule, the relative viability (LCLC-103H; first compound 2.53 µM) was 0.332, the relative viability (LCLC-103H; first compound 8 µM) was 0.364 and the relative viability (NCI-H2405; first compound 0.08 µM) was 0.412. For the same molecule, the relative viability (NCI-H2405; first compound 0.253 µM) was 0.389, the relative viability (NCI-H2405; first compound 0.8 µM) was 0.478 and the relative viability (NCI-H2405; first compound 2.53 µM) was 0.381. For the same molecule, the relative viability (NCI-H2405; first compound 8 µM) was 0.418.
